Assay results: patent US20110301104A1, “Transition state structure of orotate phosphoribosyl transferases and uses thereof” (priority 2008, published 2011)
Where two headings read alike, the source gives them in different places.

Key:
Assay type in all cases: biochemical
[1] = molecular target: T1, PfOPRT (Plasmodium falciparum, UniProt Q8I3Y0); assay: PfOPRT kinetic and inhibition assay (OMP with PA or PPi)
T1 construct: His6 (thrombin-cleavable) (N, cleaved yes); made in house; host or cells: E. coli BL21-AI
T1 sequence (Q8I3Y0 1-281): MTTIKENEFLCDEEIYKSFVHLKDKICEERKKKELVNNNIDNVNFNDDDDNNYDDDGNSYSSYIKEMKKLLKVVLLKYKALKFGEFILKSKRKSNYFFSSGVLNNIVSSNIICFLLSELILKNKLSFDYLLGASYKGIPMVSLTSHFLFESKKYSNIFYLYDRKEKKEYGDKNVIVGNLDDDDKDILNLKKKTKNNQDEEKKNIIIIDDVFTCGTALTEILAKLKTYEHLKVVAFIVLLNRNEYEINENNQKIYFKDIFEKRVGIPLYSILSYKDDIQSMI
Protocol: (§1) Expression and Purification of PfOPRT and HsOPRT. The pDEST14 vectors encoding the two OPRT genes were transformed into BL21-AI E. coli competent cells and grown in LB+Amp (100 μg mL^−1) at 37° C. to an OD600 of 0.6. Protein expression was induced by adding 0.02% L-arabinose with overnight growth at 37° C. Cells were harvested by centrifugation at 4° C., weighted and resuspended in lysis buffer (20 mM Tris-HCl, 500 mM NaCl and 5 mM Imidazole, pH=7.9, 3 mL/gram cell pellet). Lysozyme (100 μg mL^−1), DNase I (10 μg mL^−1) and protease inhibitor (1 tablet/8 grams of cells) (Roche Applied Science, Indianapolis, Ind.) were added to the solution. Following disruption in a French Press, cell lysate was centrifuged at 30,000 g for […] at 4° C. […] The 6×His-OPRTs were eluted with a gradient of imidazole (20 mM ˜500 mM). The OPRT bands were visualized on SDS-PAGE gels and fractions with high purity were pooled, made to 10% glycerol and 10 mM β-ME (final concentration), concentrated and dialyzed overnight at 4° C. to remove imidazole. His-tags were removed during dialysis by the presence of thrombin (1 unit/0.1 mg). His-tag free OPRTs were purified by Superdex 200 26/60 Gel filtration column, concentrated and stored at −80° C. […] Reactions were monitored by the absorbance increase at 295 nm to give an extinction coefficient of 3.67 mM^−1 cm^−1.

[2] = molecular target: T2, HsOPRT (Homo sapiens, UniProt P11172); assay: HsOPRT kinetic and inhibition assay (OMP with PA or PPi)
T2 construct: This HsUMPase truncation construct only expresses its HsOPRT domain; His6 (thrombin-cleavable) (N, cleaved yes); made in house; host or cells: E. coli BL21-AI
T2 sequence (P11172 1-245): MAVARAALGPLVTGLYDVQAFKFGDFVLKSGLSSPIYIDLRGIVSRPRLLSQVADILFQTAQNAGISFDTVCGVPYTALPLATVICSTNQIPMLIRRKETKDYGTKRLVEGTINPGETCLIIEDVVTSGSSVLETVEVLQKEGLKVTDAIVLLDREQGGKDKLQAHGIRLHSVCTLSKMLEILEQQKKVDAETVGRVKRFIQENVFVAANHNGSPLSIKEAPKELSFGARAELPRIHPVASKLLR
Protocol: as §1

[3] = molecular target: T1, PfOPRT; assay: PfOPRT catalytic activity with p-nitrophenyl β-D-ribose 5′-phosphate as substrate; conditions: with PA or pyrophosphate; absorbance at 400 nm; conditions could detect 10^−6 of normal activity
Protocol: (§2) The PfOPRT and HsOPRT catalytic activities with p-nitrophenyl β-D-ribose 5′-phosphate were measured at 25° C. in solutions containing 50 mM Tris-HCl (pH=8.0), 5 mM MgCl2 and varied concentrations of p-nitrophenyl β-D-ribose 5′-phosphate and PA or pyrophosphate. Reaction rates were monitored through the absorbance increase at 400 nm.

[4] = molecular target: T2, HsOPRT; assay: HsOPRT catalytic activity with p-nitrophenyl β-D-ribose 5′-phosphate as substrate; conditions: with PA or pyrophosphate; absorbance at 400 nm
Protocol: as §2

[5] = competitive inhibition with respect to OMP, PPi as substrate, 25° C., pH 8.0

SMILES: O=[N+]([O-])c1ccc(O[C@@H]2O[C@H](CO)[C@@H](O)[C@H]2O)cc1 [p-nitrophenyl β-D-ribose, reference compound]
- Ki [1, 5]: 188 nM
- Ki [2, 5]: 121 nM

SMILES: O=[N+]([O-])c1ccc(O[C@@H]2O[C@H](COP(=O)(O)O)[C@@H](O)[C@H]2O)cc1 [p-nitrophenyl β-D-ribose 5′-phosphate]
- Ki [1]: 40 nM
- Km/Ki ([1]; Km of OMP over Ki of inhibitor): 93
- Ki [2]: 41 nM
- Km/Ki ([2]; Km of OMP over Ki of inhibitor): 38
- catalytic activity as substrate (O-glycosidic bond cleavage) [3]: did not catalyze the O-glycosidic bond cleavage
- catalytic activity as substrate (O-glycosidic bond cleavage) [4]: Poor catalytic activity

SMILES: O=C(O)c1cc(=O)[nH]c(=O)n1[C@@H]1O[C@H](COP(=O)(O)O)[C@@H](O)[C@H]1O [OMP, orotidine 5′-monophosphate, reference compound]
- reduction of kcat/Km with PA relative to PPi as the nucleophile ([1]; OMP, PA versus PPi): 110 fold
- reduction of kcat/Km with PA relative to PPi as the nucleophile ([2]; OMP, PA versus PPi): 8.3 fold
